Measurements: PMC10458458, “Characterization of Anticancer Effects of the Analogs of DJ4, a Novel Selective Inhibitor of ROCK and MRCK Kinases” (Pharmaceuticals, 2023)

Experiments:
[1] = tested on: CDK11; assay: KINOMEscan competition binding assay; set-up: species or system human; conditions: CDK11, 10 µM
Excerpt: (§1) To examine specificity of DJ4 to different human kinases, we performed a KINOMEscan profiling assay (DiscoverX, Fremont, CA, USA). The KINOMEscan assay consists of a panel of more than 480 kinases of different classes (TK/TKL/STE/CK1/AGC/CAMK/CMGC/others), including clinically relevant mutants, atypical kinases, lipid, and pathogen kinases. […] However, we also recognized the limitations of DJ4 that preclude its clinical development and the need for further optimization of the DJ4 chemotype.
The KINOMEscan®, in vitro competition binding assay, was performed by Lead Hunter Discovery Services (DiscoverX Corporation, Fremont, CA, USA) to determine the kinase specificity of DJ4, a novel kinase inhibitor [19, 44]. The KINOMEscan® panel consists of more than 480 kinases, including clinically relevant mutants, lipid, atypical, and pathogen kinases, plus a growing panel of activation-state specific assays. The primary screen was performed using a single concentration of 10 µM, and the results for DJ4 binding interactions are reported as percent of control (%Ctrl). The %Ctrl is calculated as follows: [(DJ4 signal-positive control signal)/(negative control DMSO signal-positive control signal)] x […]. The human kinome tree annotation for DJ4 is plotted with Reaction Biology’s Kinase Mapper and KinMap web interface tool http://kinhub.org/kinmap (accessed on 09 January 2023).

[2] = tested on: A549 cells; assay: Western blot of cell cycle regulatory proteins; type: cell-based, human
Method: To better understand the anti-proliferative and pro-apoptotic effects of DJ4, expression of key proteins involved in proliferation and apoptosis were determined by a Western blot. A549 cells were treated with 2.5 µM and 10 µM concentrations for 24 h and 48 h. […] We also examined the expression of cyclin D3 and CDK4 (G1/S cell cycle checkpoint kinase).
(§2) For protein expression studies, MDA-MB-231 cells were treated with indicated concentrations of DJ4 for 24 h. Additionally, A549 cells were treated for 24 h and 48 h. Cell lysate preparation, protein estimation, and Western blot analysis was performed as per the procedure reported earlier. The blots were probed with cleaved caspase 7 (#9492, Cell Signaling, Danvers, MA, USA), GAPDH (#97166, Cell Signaling, Danvers, MA, USA), β-Actin (#3700, Cell Signaling, Danvers, MA, USA), pErk (#5726, Cell Signaling, Danvers, MA, USA), p21 ^WAF1/CIP1 (#60480, Cell Signaling, Danvers, MA, USA), cyclinD3 (#2936, Cell Signaling, Danvers, MA, USA), CDK4 (#23972, Cell Signaling, Danvers, MA, USA), cleaved PARP (#32563, Cell Signaling, Danvers, MA, USA), pan Erk (#23887, Cell Signaling, Danvers, MA, USA), pMYPT1 (Thr853, # SAB4503944, Millipore, Inc., Burlington, MA, USA) and PCNA (#sc-56, Santa Cruz Biotechnology, Inc., Dallas, TX, USA) antibodies.

[3] = tested on: MDA-MB-231 breast cancer cells; assay: Western blot of proliferation and apoptosis proteins; type: cell-based, human; conditions: 24 h
Method: To extend these observations to MDA-MB-231 breast cancer cells, cells were treated with DJ4 at 2.5, 5.0, and 10 µM for 24 h. ROCK1/2 catalyzes the inactivating phosphorylation of the myosin phosphatase subunit MYPT1 at Thr696 and Thr853 [16]. To confirm the targeting of ROCK1/2 by DJ4 in MDA-MB-231 cells, we probed for phosphorylation of MYPT1.
In contrast, expression of proliferating cell nuclear antigen (PCNA) protein was decreased at all the concentrations (Figure 4C). PCNA is highly expressed during active DNA synthesis (S phase).
as §2

[4] = tested on: MDA-MB-231 breast cancer cells; assay: Live/dead cell count (Muse); type: cell-based, human; conditions: 24 h
Method: Figure 2 DJ4 reduces cell survival and inhibits colony forming ability of the cancer cells. (A) Different NSCLC cells were plated in a 96-well plate to confluence and then treated for 72 h. Cytotoxicity was assessed by MTT assay. The error bars indicate SEM of triplicates. (B) To assess cytotoxicity of DJ4 in breast cancer cells, MDA-MB-231 cells were treated for 24 h with indicated concentrations of DJ4. Percentage of live cells were counted using Muse^TM Live/Dead reagent and analyzed by Muse^TM cell analyzer. Error bars indicate SEM. n = 2. * p < 0.05. (C) DJ4 inhibits colony forming ability of A549 cells treated for 48 h. After a 48-h treatment, cells were seeded with number of cells mentioned in the table and were allowed to grow and form colonies. At the end of 14 days, colonies were stained and counted. Percent surviving fraction was calculated. The figure is the representative of the replicates. (D) The data are summarized in the table and represent the average of three replicates. […]
MDA-MB-231 cells were treated for 24 h with 1 µM, 2.5 µM, 5 µM, and 10 µM concentrations of DJ4. […] Cell number and cell viability were analyzed using Muse^TM Cell Viability reagent and Muse^TM (Millipore, Inc. Burlington, MA, USA) cell analyzer as per the manufacturer’s instructions.

[5] = tested on: RET tyrosine kinase mutants (V804L/V804/M918T); assay: KINOMEscan competition binding assay; set-up: species or system human; conditions: 10 µM
Excerpt: as §1
(§3) Figure 5 The kinase selectivity profile for DJ4 assessed using KINOMEscan high-throughput assay. […] The red spots (ROCK/MRCK/CDK/FLT3/KIT) indicate kinases with high specificity to DJ4. (C,D) The % inhibition profile of DJ4 with wild-type (WT) and its clinically relevant kinase mutants of RET (rearranged during transfection) tyrosine kinase (C) and EGFR (epidermal growth factor receptor) protein kinase (D).
(§4) The KINOMEscan®, in vitro competition binding assay, was performed by Lead Hunter Discovery Services (DiscoverX Corporation, Fremont, CA, USA) to determine the kinase specificity of DJ4, a novel kinase inhibitor [19, 44]. […] The %Ctrl is calculated as follows: [(DJ4 signal-positive control signal)/(negative control DMSO signal-positive control signal)] x 00. […]

[6] = tested on: EGFR mutants (G718C, G719S, L858R, etc.); assay: KINOMEscan competition binding assay; set-up: species or system human; conditions: 10 µM
Excerpt: as §1, §3, §4

[7] = MDA-MB-231, all concentrations (2.5, 5.0, 10 µM)

O=C1N/C(=N\CCc2ccccc2)S/C1=C/c1c[nH]c2ncccc12 [DJ4]
inhibition (KINOMEscan) [1]: more than 98% | activation of Erk1/2 (phospho-Erk; pERK) ([2]; A549, 2.5 µM, 24 h): significantly induced activation | expression of CDK4 ([2]; A549, 2.5 µM, 24 h): upregulated | expression of cyclin D3 ([2]; A549, 2.5 µM, 24 h): upregulated | expression of p21 WAF1/CIP1 ([2]; A549, 2.5 µM, 24 h): upregulated | expression of p21 WAF1/CIP1, pERK, CDK4, and cyclin D3 ([2]; A549, 10 µM, 24 h and 48 h): decreased below vehicle treatment levels | expression of pErk ([3]; MDA-MB-231, 2.5, 5.0 and 10 µM): significantly increased | cleaved PARP [3, 7]: corresponding increases | expression of PCNA [3, 7]: decreased | expression of cleaved caspase 7 [3, 7]: significantly increased | cell death ([4]; MDA-MB-231, 1 µM): 29% | cell death ([4]; MDA-MB-231, 10 µM): 47% | binding of RET mutants relative to wild-type [5]: stronger binding | inhibition of EGFR mutants relative to wild-type form [6]: differential inhibition
